Data reported in patent US20070213291A1, “Therapeutically useful synthetic oligonucleotides” (priority 1999, published 2007).
Where “and” joins values, the source holds several entries; their conditions need not be identical. Identical values can stand only once.

What was measured:
caspase 3 = experiment: Caspase 3 activation, colorimetric (p-nitroanilide peptide cleavage); type: cell-based, human; settings: Jurkat, 72 h, 100 μg/ml
Description: To determine caspase activation, control and treated cells are washed, fixed, permeabilized and incubated with an FITC-conjugated antibody that recognizes the active form of the caspase (Pharmingen, San Diego, Calif.) using the conditions recommended by the manufacturer. Fluorescence associated with active caspase 3 is analyzed by flow cytometry on a FACSCALIBUR using the program CellQUEST (Becton Dickinson). Alternatively, caspase activation is determined colorimetrically using an assay based on the cleavage of a caspase-specific peptide conjugated to the color reporter molecule p-nitroanilide, which can be quantitated spectrophotometrically at a wavelength of 405 nm.
Jurkat T cell leukemia cells were incubated for 72 h with 33 base GT SEQ ID NO:66; 11 base GT SEQ ID NO:81 (bases 1-11 of GT SEQ ID NO:66), 11 base GT SEQ ID NO:82 (bases 12-22 of GT SEQ ID NO:66), 11 base GT SEQ ID NO:83 (bases 23-33 of GT SEQ ID NO:66) and 15 base ACG SEQ ID NO:67. Active caspase 3 (17-22 kDa) was determined using FITC conjugated antibody (Clone: C92-605) as in Example 28.
Caspase 3 activation also was determined colorimetrically as in Example 28.
Jurkat T cell leukemia cells were incubated for 72 h with 6 base GT SEQ ID NO:25. Caspase 3 activation was determined colorimetrically as in Example 28.

[1] = system: Jurkat human leukemia T cells; experiment: Intracellular calcium (Fluo-3-AM fluorescence); type: cell-based; settings: 24 h, 100 μg/ml
Description: Increases in intracellular calcium (Ca^2+)i are reported to be associated with apoptosis induction (Lam et al. Mol. Endocrinol. 7:686, 1993). (Ca^2+)i was followed using the fluorescent probe Fluo-3-AM (Cell Permaant, Molecular Probes, Inc., Eugene, Oreg.). An increase in Fluo-3-AM fluorescence is indicative of an increase in (Ca^2+)i.
Jurkat human leukemia T cells were incubated for 24 h with 6 base GT SEQ. NO:25. Cells were collected by centrifugation, suspended in PBS containing 1% FBS and loaded with 10 μM Fluo-3-AM for 1 h at 37° C. Cell fluorescence was measured at 488 nm excitation and 530 nm emission (FL1 detector). Data were analyzed on a FACSCALIBUR using the program CellQUEST (Becton Dickinson).

[2] = system: OVCAR-3 human ovarian cancer cells; experiment: Inhibition of OVCAR-3 cell proliferation (MTT); type: cell-based; settings: 100 μg/ml, 48 h, 5×10^5 cells/ml
Description: (§1) Cells were seeded in 6 (1 ml/well), 24 (0.5 ml/well) or 96 (0.1 ml/well) well flat-bottom microplates and were maintained at 37° C. in a 5% CO2 atmosphere. Unless stated otherwise, 2.5×10^5 cells/ml were incubated with 0 μg/ml (control) and 100 μg/ml (treated) of 2 to 45 base sequences containing A, C, G and T for 48 h.
(§2) Cell proliferation was measured using dimethylthiazol-diphenyl-tetrazolium (MTT) reduction (Mosman et al. J. Immunol. Methods 65:55, 1983). MTT was measured at a wavelength of 570 nm using a multiplate spectrophotometer reader (ELX800, Bio-TEK Instruments Inc., Winooski, Vt.).
OVCAR-3 ovarian cancer cells are a p53 mutated, p21/waf-1/Cip deleted, metastatic human solid tumor model. OVCAR-3 cells (5×10^5 cells/ml) were incubated with 2, 6 and 18 base GT sequences and with a 6 base AGT sequence (Table 11).

PARP = PARP cleavage by Western blot; type: cell-based, human; settings: Jurkat, 72 h, 100 μg/ml (FIG. 3B)
Description: (§3) Jurkat T cell leukemia cells were incubated for 72 h with 6 base GT SEQ ID NO:25. The cells were washed 3× with PBS, lysed with 10 mM HEPES, pH 7.5 containing 5 mM MgCl2, 1 mM dithiothreitol, 1.5 nM aprotinin, 10 mM leupeptin and 2.5 μm Na orthovanadate, and the protein content of the lysate was determined (Bradford J. Anal. Biochem. 72:248, 1976).
(§4) Activated caspase 7 and PARP cleavage were detected by Western blot analysis. Lysate was mixed with Laemmli buffer (Laemmli U. Nature […], 1970), shaken, and heated at 100° C. for 4 min. […] The separated proteins were electroblotted onto a PVDF membrane. Equal protein loading was monitored by Ponceau red staining of the membrane.
(§5) The membrane was blocked overnight at 4° C. with a buffer containing 1% Tris-buffered saline (2 mM Tris-HCl, 13.7 mM NaCl, pH 7.6, and 0.1% polyethylenesorbitan monolaurate (TWEEN 20) (TBST) +5% non-fat dry milk. The membrane was washed and was incubated for 1 h at RT with a mouse monoclonal IgG anti-caspase 7 antibody (Pharmingen) (diluted 1:1000 in TBST+1% BSA) or with a mouse monoclonal IgG anti-PARP antibody (diluted 1:1000 in TBST+1% BSA) (Pharmingen). IgG bound to caspase 7 or to PARP was detected with sheep anti-mouse IgG conjugated to horseradish peroxidase (diluted 1:1000 in TBST+5% non-fat dry milk) (Pharmingen). […]

caspase 7 = experiment: Caspase 7 activation by Western blot; type: cell-based, human; settings: Jurkat, 72 h, 100 μg/ml (FIG. 3B)
Description: as §3, §4, §5

[3] = system: EL-4 murine T lymphoma cells; experiment: EL-4 murine T lymphoma in C57/BL6 mice; type: in vivo; settings: after 4 weeks of treatment, compared with group 1 (saline)
Description: EL-4 murine T lymphoma cells are implanted into C57/BL6 mice. The mice are divided into 6 groups of 10 mice. On day 0, group 1 mice receive saline, group 2 mice receive 3 base GT SEQ ID NO:8, group 3 mice receive 6 base SEQ ID NO:25, group 4 mice receive 6 base AG SEQ ID NO:45, group 5 mice receive 18 base GT SEQ ID NO: 18 and group 6 mice receive 27 base GT SEQ ID NO:1. After 4 weeks of treatment, the mice are sacrificed and tumor mass is determined.

[4] = system: SK-OV-3 human ovarian cancer cells; experiment: Inhibition of SK-OV-3 cell proliferation (MTT); type: cell-based; settings: 100 μg/ml, 48 h, 5×10^5 cells/ml
Description: as §1, §2
SK-OV-3 ovarian cancer cells are a p53 mutated, p21/waf-1/Cip deleted, p15^ink4B deleted, p16^Ink4 deleted, metastatichuman solid tumor model. SK-OV-3 cells (5×10^5 cells/ml) were incubated with 2, 6 and 18 base GT sequences (Table 12).

[5] = system: LNCaP human prostate cancer cells; experiment: LNCaP human prostate cancer xenografts in male nude nu/nu mice; type: in vivo; settings: after 4 weeks of treatment, compared with other groups (group 1 saline, group 5 BCG A-3)
Description: LNCaP human prostate cancer cells are implanted subcutaneously, as xenografts, in male nude nu/nu mice. The mice are divided into 5 groups of 10 mice. On day 0, group 1 mice receive saline, group 2 mice receive 3 base SEQ ID NO:8, group 3 mice receive 6 base GT SEQ ID NO:25, group 4 mice receive 6 base AG SEQ ID NO:45 and group 5 mice receive 45 base BCG A-3 SEQ ID NO:69. After 4 weeks of treatment, the mice are sacrificed and timor mass is determined.

Sequence: GGGTGG [SEQ ID NO:25]
- caspase 3 activity greater than in control cells (caspase 3): 323%
- increase in cell fluorescence (Fluo-3-AM), indicative of (Ca2+)i [1]: 88%
- % INHIBITION of OVCAR-3 human ovarian cancer cell proliferation [2]: 15% and 14%
- PARP cleavage (PARP): active PARP to its inactive 85 kDa degradation product
- processing of inactive pro-caspase 7 to active caspase 7 (caspase 7): induced processing of inactive pro-caspase 7 (30 kDa) to active caspase 7 (19-20 kDa)
- tumor mass [3]: less tumor mass than group 1 mice
- % INHIBITION of SK-OV-3 human ovarian cancer cell proliferation [4]: 12%
- tumor mass [5]: less tumor mass than groups 1 and 5 mice
